Entries after “also recorded” stand apart in the source; their conditions may differ. Like-named read-outs stand apart in the source and are kept apart here.
Columns and labels:
[1] = molecular target: T1, human CCL5 (Homo sapiens, UniProt P13501); assay: Fluorescence anisotropy titration of 5(6)-Fam-labeled peptides by CCL5; type: binding; settings: 100 nM 5(6)-Fam-labeled peptide, HEPES pH 7.4, 37 °C; for effect of CCL5 addition on fluorescence anisotropy / affinity in words: CCL5 up to 500 nM
T1 sequence (P13501 24-91): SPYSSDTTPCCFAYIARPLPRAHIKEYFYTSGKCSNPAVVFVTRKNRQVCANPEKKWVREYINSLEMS
Text: To assess this hypothesis, two peptides taken from the Evasin-4 sequence were synthesized by Boc-based solid-phase peptide synthesis (Figs. S8 and S9). The first peptide, Ev4 Glu^14–Ala^23, comprises the Glu^14–Ala^23 residues of Evasin-4, whereas the second one, Ev4 Glu^14–Asn^31, includes the longer region Glu^14–Asn^31 (Fig. 4C). Cys^27 in the Ev4 Glu^14–Asn^31 was mutated to alanine to prevent oxidation and formation of intermolecular disulfide bonds. Affinity of obtained peptides to CCL5 was studied by fluorescence anisotropy using 100 nM of 5(6)-Fam–labeled peptides and human CCL5.
Fluorescence polarization assays were carried out using FluoroMax 4 fluorimeter (Horiba) equipped with FM4-2000 polarizers in 3-ml cuvettes. 100 nM solution of 5(6)-Fam–labeled peptides in HEPES buffer pH 7.4 were titrated by a 30 μM stock solution of CCL5 at 37 °C. Fluorescent signal was measured using 495 and 520 nm as excitation and emission wavelengths. The final titration curve is a result of three or four independent measurements.

[2] = Solubility/precipitation observed in NMR and crystallization sample preparation
Method: For NMR sample preparation, lyophilized proteins were dissolved in 25 mM phosphate buffer (pH 6.8–7.1) or 25 mM sodium acetate-d^3 buffer (pH 4.5) containing 0.1 mM EDTA, 0.2 mM sodium azide, 5% (v/v) D2O for deuterium lock, at final concentration of 50 μM for m–t-Evasin-4 and 82, 20, and 1 μM for E66S CCL5. The samples were buffer exchanged four or five times by ultracentrifugation using prewashed Amicon Ultra-3000 3-kDa (Millipore, USA) ultracentrifugation filters. Final NMR samples were prepared in 3- or 5-mm NMR tubes, containing traces of DSS for chemical shift calibration. All NMR spectra were recorded using a Bruker Avance III HD 700 MHz spectrometer, equipped with a cryogenically cooled TCI probe at 37 °C. To make the complex, equimolar amounts of unlabeled met–Evasin-4 or E66S CCL5 were titrated to their [^15N,^13C]-enriched complement samples. For met–Evasin-4 and the two complexes, the solution pH of the NMR sample was carefully adjusted to pH 7.1 to ensure stable, nonprecipitating solutions.

[3] = tested on: CCL5-induced THP-1 cell migration; assay: THP-1 monocytic cell migration assay toward CCL5; type: cell-based, human; settings: CCL5 0.5 µg/ml
Method: Human acute monocytic leukemia cell line (THP-1) monocytic cells were purchased from Leibniz-Institut DSMZ (ACC 16). The cells were cultured in RPMI 1640 GlutaMAX medium supplemented with 20 % fetal calf serum and 1 % penicillin/streptomycin (all Gibco ThermoFisher). The cells were cultured in a humidified atmosphere (5 % CO2, 95 % air, 37 °C) and routinely passed by splitting the cells (1:10) to fresh medium. The migration of monocytic cells toward chemoattractants was assessed in a 12-well chemotaxis chamber equipped with a 5-μm polycarbonate membrane (both Neuroprobe, Gaithersburg, MD, USA). Chemoattractants CCL5 (0.5 µg/ml) or CXCL4 (0.5 µg/ml) were preincubated with met–Evasin-4 (1 µg/ml) for 2 h at 37 °C subsequently added to the bottom well of the chemotaxis chamber. THP-1 monocytic cells (1 × 10^6/ml), suspended in RPMI 1640 GlutaMAX medium supplemented with 1 % fetal calf serum, were added in the upper wells and incubated for 90 min at 37 °C in a humidified atmosphere (5 % CO2, 95 % air). The nonmigrated cells were carefully removed, and the membrane was stained with Diff-Quick stain (Eberhard Lehmann GmbH, Berlin, Germany). Migrated cells were visualized by light microscopy, counted manually in five fields, and expressed as cells/mm^2.

[4] = tested on: E66S CCL5; assay: NMR titration of 15N E66S CCL5 by Ev4 Glu14-Asn31; type: binding; settings: 25 mM acetate
Method: In the case of E66S CCL5/Ev4 Glu^14–Asn^31 complex, 25 μM of ^15N E66S CCL5 in 25 mM acetate buffer, pH 4.5, was titrated by increasing concentrations of Ev4 Glu^14–Asn^31. For each concentration ^15N-^1H HSQC was recorded. Backbone resonance assignments were derived by following the shift of peak positions.

[5] = tested on: CCL18; settings: cited from earlier work
Text: (§1) Disruption of the chemokine signaling system is one of the crucial parts of ticks' strategy to evade immune responses. To neutralize chemokines, ticks secrete small cysteine-rich chemokine-binding proteins in their saliva with no homologues in mammals, termed Evasins ([6]). Evasins can be divided into two structurally unrelated C6 or C8 subfamilies embodying six and eight cysteines, respectively ([6]). […] Although several hundred of putative C6- and C8-Evasins have been identified in tic ...

[6] = tested on: CCL4; settings: cited from earlier work
Text: as §1

[7] = tested on: CCL3; settings: cited from earlier work
Text: Disruption of the chemokine signaling system is one of the crucial parts of ticks' strategy to evade immune responses. To neutralize chemokines, ticks secrete small cysteine-rich chemokine-binding proteins in their saliva with no homologues in mammals, termed Evasins ([6]). Evasins can be divided into two structurally unrelated C6 or C8 subfamilies embodying six and eight cysteines, respectively ([6]). […] In fact, the N terminus of C8-Evasins seems to play a crucial role in chemokine binding. For instance, replacement of the N terminus of Evasin-1 by that of P672, another C8-Evasin with different chemokine selectivity, produced a chim ...

[8] = physiological pH; cited from earlier work
Method: (§2) CCL5 can oligomerize, forming dimers and oligomers of a higher order ([16]), which would complicate analysis of Evasin-4 binding. […] To address this question, surface plasmon resonance (SPR) biosensor analysis was performed with biotinylated Eva ...

[9] = NMR analysis of E66S CCL5 monomer/dimer equilibria; type: physicochemical; settings: pH 4.5, 37 °C
Method: To study the structural determinants of E66S CCL5 involved in Evasin-4 binding, NMR spectra were recorded for the [^15N,^13C]E66S CCL5–Evasin-4 complex. Initial ^15N-^1H HSQC spectra of [^15N,^13C]E66S CCL5 were recorded at pH 4.5 and 37 °C at concentrations of 1 and 20 μM. […] This observation goes in line with the obtained crystal structure because the E66S CCL5 dimer interface is formed by interactions of the N terminus with the 30s loop and β3-strand.

[10] = tested on: Evasin-4; settings: cited from earlier work
Method: as §2

Molecule: H-EEEDDYTAYA-NH2 [Ev4 Glu^14–Ala^23, peptide comprising the Glu14–Ala23 residues of Evasin-4]
- effect of CCL5 addition on fluorescence anisotropy / affinity in words [1]: no effect even at concentration of 500 nM
- affinity to CCL5 ([1]; fluorescence anisotropy): no affinity to CCL5

Molecule: H-EEEDDYTAYAPLTAYFTN-NH2 [Ev4 Glu^14–Asn^31, H2N-EEEDDYTAYAPLTAYFTN-CONH2]
- solubility of peptide ([2]; low pH values, negatively charged residues): poorly soluble at low pH values
- solubility of complex with E66S CCL5 ([2]; peptide/E66S CCL5 complex compared with E66S CCL5-Evasin-4 complex): more soluble compared with the E66S CCL5–Evasin-4 complex
- effect of CCL5 addition on fluorescence anisotropy / affinity in words [1]: dose-dependent increase of fluorescence anisotropy
- affinity to CCL5 ([1]; fluorescence anisotropy): nanomolar affinity to CCL5; also recorded: binds CCL5 with nanomolar affinity
- Kd ([1]; fluorescence anisotropy, titrated by 30 μM stock of CCL5, ex 495/em 520 nm, three or four independent measurements, read-out: apparent KD): 69 ± 12 nM
- required inhibitory concentrations compared with full-length Evasin-4 ([3]; CCL5-induced THP-1 migration, compared with full-length protein): the required concentrations were higher compared with the full-length protein
- concentration at which full inhibition of CCL5-induced THP-1 migration was reached ([3]; full inhibition only at this concentration, 1 × 10^6 cells/ml, 90 min, 37 °C): 10 µM
- inhibition of CCL5-induced THP-1 migration ([3]; increasing concentrations of Ev4 Glu14-Asn31, 1 × 10^6 cells/ml, 90 min, 37 °C): dose-dependent inhibition of CCL5-induced THP-1 cell migration; also recorded: effectively inhibits CCL5-induced monocyte migration; also recorded: blocks CCL5-induced monocyte migration
- effect of peptide titration on E66S CCL5 signals ([4]; 25 μM [15N]E66S CCL5, increasing concentrations of peptide, pH 4.5): binds the CCL5 monomer; also recorded: gradual shift of signals of monomeric E66S CCL5 and decrease of signal intensity for the dimeric form; also recorded: only CCL5 monomer signals are affected upon binding
- most perturbed residues of E66S CCL5 by peptide binding ([4]; 25 μM [15N]E66S CCL5 monomer form, before and after 500 μM Ev4 Glu14-Asn31, pH 4.5, 37 °C): N-loop (Phe^12–Arg^21 and His^23) and in the β3-strand (Gln^48 and Cys^50)

B1: Evasin-1: 94–amino acid protein from the C8 subfamily, from Rhipicephalus sanguineus (protein, UniProt P0C8E7 21-114, looked up)
Evasin-1: EDDEDYGDLGGCPFLVAENKTGYPTIVACKQDCNGTTETAPNGTRCFSIGDEGLRRMTANLPYDCPLGQCSNGDCIPKETYEVCYRRNWRDKKN
- affinity in words [5]: high-affinity binder
- affinity in words [6]: high-affinity binder
- affinity in words [7]: high-affinity binder

B2: E66S CCL5: CCL5 mutant that mainly forms dimers at physiological pH (protein, UniProt P13501 24-91, looked up, variant E66S)
C-C motif chemokine 5: SPYSSDTTPCCFAYIARPLPRAHIKEYFYTSGKCSNPAVVFVTRKNRQVCANPEKKWVREYINSLSMS
- oligomeric form [8]: mainly forms dimers
- oligomeric form ([9]; 1 μM E66S CCL5, 15N-1H HSQC): monomeric form
- oligomeric form ([9]; 20 μM E66S CCL5, 15N-1H HSQC, two sets of signals): monomeric and dimeric form

B3: CCL5: chemokine CC-motif ligand 5, also known as RANTES (protein, UniProt P13501 24-91, looked up)
C-C motif chemokine 5: SPYSSDTTPCCFAYIARPLPRAHIKEYFYTSGKCSNPAVVFVTRKNRQVCANPEKKWVREYINSLEMS
- induction of THP-1 migration ([3]; compared with control in the absence of chemoattractants, 90 min, 37 °C): induced significant migration of THP-1 cells

B4: E66A CCL5: CCL5 mutant with deficiency in oligomerization (ref 25) (protein, UniProt P13501 24-91, looked up, variant E66A)
C-C motif chemokine 5: SPYSSDTTPCCFAYIARPLPRAHIKEYFYTSGKCSNPAVVFVTRKNRQVCANPEKKWVREYINSLAMS
- oligomerization and Evasin-4 inhibition potency [10]: deficiency in oligomerization without disturbing Evasin-4 inhibition potency

— PMC7573271, “Structural characterization of anti-CCL5 activity of the tick salivary protein evasin-4” (The Journal of Biological Chemistry, 2020)
